Legend:
[1] = tested on: A673; experiment: SRB assay, growth inhibition; assay type: cell-based; details: A673, EWS
Protocol: (§1) FIG. 3A-3B. (A) The effects of altertoxin II were evaluated using the SRB assay in 6 Ewing sarcoma cell lines as compared to 4 other pediatric solid tumor cells lines. n≥3 independent experiments. (B) The effects of altertoxin II were evaluated by the Houghton laboratory using the alamar blue assay in an additional 6 Ewing sarcoma cell lines and potency compared to the activities in 5 rhabdomyosarcoma cell lines. n=3 independent experiments.
(§2) The effects of altertoxin II were studied in a larger panel of cell lines and the GI50, the concentration that causes 50% inhibition of cell growth, and the TGI, the concentration that caused total growth inhibition, were determined using the sulforhodamine b (SRB assay). The mean GI50 values shown graphically in FIG. 3A. The IC50, the concentration that causes 50% inhibition of cell proliferation, values were determined in a second panel of Ewing sarcoma and rhabdomyosarcoma cell lines using the altar blue assay and these values are presented in Table 2 and the mean in […].

[2] = tested on: SK-ES-1; experiment: SRB assay, growth inhibition; assay type: cell-based
Protocol: as §1, §2

[3] = tested on: SK-N-BE2; experiment: SRB assay, growth inhibition; assay type: cell-based
Protocol: as §1, §2

[4] = tested on: A204; experiment: SRB assay, growth inhibition; assay type: cell-based; details: A204, RMS
Protocol: as §1, §2

[5] = tested on: D283; experiment: SRB assay, growth inhibition; assay type: cell-based; details: D283, Med
Protocol: as §1, §2

[6] = tested on: RD-ES; experiment: SRB assay, growth inhibition; assay type: cell-based; details: EWS
Protocol: as §1, §2

[7] = tested on: SH-SY-5Y; experiment: SRB assay, growth inhibition; assay type: cell-based; details: NB
Protocol: as §1, §2

[8] = tested on: Ewing sarcoma cell lines; experiment: SRB assay panel, selectivity Ewing sarcoma vs other pediatric solid tumor cell lines; assay type: cell-based; details: mean GI50, 6 Ewing sarcoma cell lines
Protocol: as §1, §2

[9] = tested on: RD-ES cells; experiment: G1 arrest with CDK4/6 inhibitor and SRB concentration-response; assay type: cell-based; details: RD-ES pre-treated with LSN2813542 (100 nM); SRB assay
Protocol: FIG. 6. Concentration-response curves for altertoxin II (ATX) with and without pre-treatment with the CDK4/6 inhibitor LSN2813542 (100 nM) using the SRB assay, n=3.
An experiment was designed to evaluate whether the effects of altertoxin II in Ewing sarcoma cells required cell cycle transition. RD-ES cells were arrested in the G1 phase of the cell cycle using the CDK4/6 inhibitor LSN2813542. LSN2813542 (100 nM) had no effect on RD-ES cell viability, but caused greater than 85% of the cells to arrest in G1 for at least 48 h. The arrested cells were then treated with altertoxin II and a concentration-response curve generated.

[10] = tested on: EW-8; experiment: alamar blue assay, proliferation; assay type: cell-based
Protocol: as §1, §2

[11] = tested on: ES-8; experiment: alamar blue assay, proliferation; assay type: cell-based; details: Homo sapiens, ES8, ES-8, Ewing Sarcoma
Protocol: as §1, §2

[12] = tested on: Rh41; experiment: alamar blue assay, proliferation; assay type: cell-based; details: Homo sapiens, Rh41, Rhabdomyosarcoma
Protocol: as §1, §2

[13] = tested on: Rh30; experiment: alamar blue assay, proliferation; assay type: cell-based; details: Rh30, Rhabdomyosarcoma
Protocol: as §1, §2

[14] = tested on: ES-4; experiment: alamar blue assay, proliferation; assay type: cell-based; details: ES-4, Ewing Sarcoma
Protocol: as §1, §2

[15] = tested on: TC-71; experiment: alamar blue assay, proliferation; assay type: cell-based; details: TC-71, Ewing Sarcoma
Protocol: as §1, §2

[16] = tested on: Rh5; experiment: alamar blue assay, proliferation; assay type: cell-based; details: Rh5, Rhabdomyosarcoma
Protocol: as §1, §2

[17] = tested on: ES-7; experiment: alamar blue assay, proliferation; assay type: cell-based; details: Homo sapiens, ES7, ES-7, Ewing Sarcoma
Protocol: as §1, §2

[18] = tested on: ES-2; experiment: alamar blue assay, proliferation; assay type: cell-based; details: Homo sapiens, ES-2, Ewing Sarcoma, N = 3-6
Protocol: as §1, §2

[19] = tested on: Rh36; experiment: alamar blue assay, proliferation; assay type: cell-based; details: Rh36, Rhabdomyosarcoma
Protocol: as §1, §2

[20] = tested on: Rh28; experiment: alamar blue assay, proliferation; assay type: cell-based; details: Rh28, Rhabdomyosarcoma
Protocol: as §1, §2

[21] = tested on: Rh18; experiment: alamar blue assay, proliferation; assay type: cell-based; details: Homo sapiens, Rh18, Rhabdomyosarcoma
Protocol: as §1, §2

[22] = tested on: TC-32 cells; experiment: Altertoxin II concentration in cell media by LC/MS; assay type: in vitro ADME; details: TC-32 media, after 2 h
Protocol: (§3) An experiment was conducted to test this possibility. TC-32 Ewing sarcoma and Rh30 rhabdomyosarcoma cells were treated with 100 nM ATX for 6 h and the conditioned media was then applied to the resistant Rh30 cells. […] Differences in the altertoxin II concentration were measured by LC/MS in media from TC-32 and HepG2 hepatocellular carcinoma cells.

[23] = tested on: HepG2 hepatocellular carcinoma cells; experiment: Altertoxin II concentration in cell media by LC/MS; assay type: in vitro ADME; details: after 2 h
Protocol: as §3

[24] = tested on: A673 Ewing sarcoma cells; experiment: DNA damage response immunoblot (Chk1, Chk2); assay type: cell-based; details: 10-300 nM, within 6 h
Protocol: FIG. 9A-9B. Altertoxin II causes phosphorylation of CHK1 and 2 and p53 in Ewing sarcoma cells. Ewing sarcoma cells, A673, RD-ES, SK-ES-1, or rhabdomyosarcoma A204 cells were treated with altertoxin II at the concentrations indicated for 6 h (A) or 24 h (B) and whole-cell lysates prepared and proteins separated by SDS-PAGE. These samples were analyzed by immunoblotting for total and phosphorylated Chk1 and 2 and p53 (A).
Downstream activation of DNA damage response proteins by altertoxin II was subsequently evaluated.

[25] = tested on: 4 Ewing sarcoma cell lines, including SK-ES-1 cells; experiment: Cell cycle distribution by flow cytometry; assay type: cell-based; details: each of 4 Ewing sarcoma lines
Protocol: FIG. 5A-5B. Altertoxin II causes accumulation of SK-ES-1 Ewing sarcoma cells in the S-phase of the cell cycle. Cell cycle analysis of SK-ES-1 cells by flow cytometry. (A) Histogram of DNA content after treatment with two different concentrations of ATX for 18 hours. (B) quantification of cells in each cell cycle phase.
The effects of altertoxin II on cell cycle distribution were evaluated in 4 Ewing sarcoma cell lines using flow cytometry.

For `O=C1CC[C@]2(O)c3c(ccc(O)c31)-c1ccc(O)c3c1[C@H]2[C@H]1O[C@H]1C3=O` [altertoxin II], the TGI [1] was 139 nM, the GI50 ([1]; Homo sapiens) was 28 nM and the GI50 ([2]; Homo sapiens, SK-ES1, SK-ES-1, EWS) was 35 nM. For the same compound, the TGI ([2]; SK-ES-1, EWS) was 151 nM, the GI50 ([3]; Homo sapiens, SKNBE2, SK-N-BE2, NB) was 1000 nM and the TGI ([3]; SK-N-BE2, NB) was 2000 nM. The TGI [4] was 1500 nM, the GI50 ([4]; Homo sapiens) was 960 nM and the GI50 [5] was 940 nM. It also gave a TGI [5] of 1700 nM, a GI50 ([6]; n ≥ 3) of 14 nM and a TGI ([6]; total growth inhibitory concentration) of 60 nM. For the same compound, the GI50 ([7]; Homo sapiens, SH-SY5Y) was 560 nM, the TGI [7] was 920 nM and the “selectivity of Ewing sarcoma cell lines vs other pediatric solid tumor cell lines” value [8] was 58 fold. The “increase in total growth inhibition concentration (TGI) after G1 arrest” value [9] was 28 fold, the IC50 ([10]; EW8, EW-8, Ewing Sarcoma, alamar blue) was 6.5 ± 0.3 nM and the “sensitivity of EW-8 cell line” value ([10]; EW-8 is resistant to PARP1 inhibitors) was “highly sensitive”. The IC50 [11] was 7 ± 1 nM, the IC50 [12] was 1130 ± 300 nM and the IC50 [13] was 750 ± 60 nM. For the same compound, the IC50 [14] was 20 ± 2 nM, the IC50 [15] was 4.6 ± 0.5 nM and the IC50 [16] was 1050 ± 230 nM. The IC50 [17] was 3 ± 1 nM, the IC50 [18] was 23 ± 4 nM and the IC50 [19] was 1030 ± 210 nM. For the same compound, the IC50 [20] was 790 ± 90 nM, the IC50 [21] was 990 ± 120 nM and the “altertoxin II remaining in media” value [22] was “approximately 25%”. For the same compound, the “altertoxin II remaining in media” value [23] was “no altertoxin II was detectable”, the “phosphorylation of Chk1 and Chk2” value [24] was “caused phosphorylation of checkpoint kinase 1 and 2” and the cell cycle distribution [25] was “Concentration-dependent S-phase arrest”.
